“And” between values parts separate entries of the source, which are not always exact repeats. Equal entries are not always repeated.
System: 876862-298-R-J1-PDC complex spheroids, viability % test/control
Test: Anticancer human tumor 876862-298-R-J1-PDC patient-derived endometrial carcinoma cell line growth inhibition [CLK]
Settings: for viability, T/C: stronger effect = lower value
In short: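 Multi-cell-type spheroids combined patient-derived tumor cells with HUVEC endothelial cells and human mesenchymal stem cells. Paired agents were dosed in half-log steps down from about clinical Cmax, or from 10 microM where Cmax was unknown.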

[1] = curve of first compound, second compound 0.0316 µM
[2] = curve of first compound, second compound 0.1 µM
[3] = curve of first compound, second compound 0.316 µM
[4] = curve of first compound, second compound 1 µM
[5] = curve of first compound, second compound 3.16 µM
[6] = curve of first compound, second compound 10 µM
[7] = second compound 0.0316 µM, first compound 0.0316 µM
[8] = second compound 0.0316 µM, first compound 0.1 µM
[9] = second compound 0.0316 µM, first compound 0.316 µM
[10] = second compound 0.0316 µM, first compound 1 µM
[11] = second compound 0.0316 µM, first compound 3.16 µM
[12] = second compound 0.0316 µM, first compound 10 µM
[13] = second compound 0.1 µM, first compound 0.0316 µM
[14] = second compound 0.1 µM, first compound 0.1 µM
[15] = second compound 0.1 µM, first compound 0.316 µM
[16] = second compound 0.1 µM, first compound 1 µM
[17] = second compound 0.1 µM, first compound 3.16 µM
[18] = second compound 0.1 µM, first compound 10 µM
[19] = second compound 0.316 µM, first compound 0.0316 µM
[20] = second compound 0.316 µM, first compound 0.1 µM
[21] = second compound 0.316 µM, first compound 0.316 µM
[22] = second compound 0.316 µM, first compound 1 µM
[23] = second compound 0.316 µM, first compound 3.16 µM
[24] = second compound 0.316 µM, first compound 10 µM
[25] = second compound 1 µM, first compound 0.0316 µM
[26] = second compound 1 µM, first compound 0.1 µM
[27] = second compound 1 µM, first compound 0.316 µM
[28] = second compound 1 µM, first compound 1 µM
[29] = second compound 1 µM, first compound 3.16 µM
[30] = second compound 1 µM, first compound 10 µM
[31] = second compound 3.16 µM, first compound 0.0316 µM
[32] = second compound 3.16 µM, first compound 0.1 µM
[33] = second compound 3.16 µM, first compound 0.316 µM
[34] = second compound 3.16 µM, first compound 1 µM
[35] = second compound 3.16 µM, first compound 3.16 µM
[36] = second compound 3.16 µM, first compound 10 µM
[37] = second compound 10 µM, first compound 0.0316 µM
[38] = second compound 10 µM, first compound 0.1 µM
[39] = second compound 10 µM, first compound 0.316 µM
[40] = second compound 10 µM, first compound 1 µM
[41] = second compound 10 µM, first compound 3.16 µM
[42] = second compound 10 µM, first compound 10 µM
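Note: spheroids exposed to drugs for 7 days before readout.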
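Throughout, for viability, T/C: 100% = DMSO vehicle control wells.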

CC1COCCN1c1cc(C2(S(C)(=N)=O)CC2)nc(-c2ccnc3[nH]ccc23)n1 (stereo not drawn) + CNC(=O)c1ccc(Nc2nc(OC3CCCC3)c3c(-c4ccc5nc(C)oc5c4)c[nH]c3n2)c(OC)c1
IC50 [1]: 2200 nM
IC50 [2]: < 31.6 nM
IC50 [3]: < 31.6 nM
IC50 [4]: < 31.6 nM
IC50 [5]: < 31.6 nM
IC50 [6]: < 31.6 nM
viability, T/C [7]: 70.2%
viability, T/C [8]: 84.7%
viability, T/C [9]: 75.5%
viability, T/C [10]: 69.8%
viability, T/C [11]: 40.9%
viability, T/C [12]: 22.5%
viability, T/C [13]: 47.2%
viability, T/C [14]: 50.9%
viability, T/C [15]: 42.7%
viability, T/C [16]: 44.6%
viability, T/C [17]: 24.3%
viability, T/C [18]: 15%
viability, T/C [19]: 43.8%
viability, T/C [20]: 41.5%
viability, T/C [21]: 39.1%
viability, T/C [22]: 30%
viability, T/C [23]: 20.5%
viability, T/C [24]: 11.4%
viability, T/C [25]: 34.4%
viability, T/C [26]: 37.4%
viability, T/C [27]: 28.3%
viability, T/C [28]: 22.6%
viability, T/C [29]: 13%
viability, T/C [30]: 6.42%
viability, T/C [31]: 29%
viability, T/C [32]: 21%
viability, T/C [33]: 17.2%
viability, T/C [34]: 11.7%
viability, T/C [35]: 8.18%
viability, T/C [36]: 3.92%
viability, T/C [37]: 22.4%
viability, T/C [38]: 19.5%
viability, T/C [39]: 14.1%
viability, T/C [40]: 12.6%
viability, T/C [41]: 7.52%
viability, T/C [42]: 3.99%

COc1c(OCCCN2CCOCC2)ccc2c3n(c(=NC(=O)c4cnc(N)nc4)nc12)CCN3
viability, T/C (compound 0.00316 µM): 105% and 81.8%
viability, T/C (compound 0.01 µM): 89.7% and 83.9%
viability, T/C (compound 0.0316 µM): 70.9% and 57%
viability, T/C (compound 0.1 µM): 37.8% and 26.3%
viability, T/C (compound 0.316 µM): 17% and 14.9%
viability, T/C (compound 1 µM): 15% and 16%
IC50 (curve of compound): 63.5 nM and 42.1 nM

CC1(C)CCC(CN2CCN(c3ccc(C(=O)NS(=O)(=O)c4ccc(NCC5CCOCC5)c([N+](=O)[O-])c4)c(Oc4cnc5[nH]ccc5c4)c3)CC2)=C(c2ccc(Cl)cc2)C1 + CNC(=O)c1ccc(Nc2nc(OC3CCCC3)c3c(-c4ccc5nc(C)oc5c4)c[nH]c3n2)c(OC)c1
IC50 [1]: 5400 nM
IC50 [2]: 473 nM
IC50 [3]: < 31.6 nM
IC50 [4]: < 31.6 nM
IC50 [5]: < 31.6 nM
IC50 [6]: < 31.6 nM
viability, T/C [7]: 69.5%
viability, T/C [8]: 88.6%
viability, T/C [9]: 83%
viability, T/C [10]: 90.6%
viability, T/C [11]: 86.1%
viability, T/C [12]: 11.2%
viability, T/C [13]: 48.2%
viability, T/C [14]: 52.2%
viability, T/C [15]: 52.3%
viability, T/C [16]: 49.2%
viability, T/C [17]: 39.2%
viability, T/C [18]: 11.8%
viability, T/C [19]: 45.1%
viability, T/C [20]: 39.5%
viability, T/C [21]: 47.9%
viability, T/C [22]: 46.1%
viability, T/C [23]: 35.9%
viability, T/C [24]: 9.32%
viability, T/C [25]: 37.7%
viability, T/C [26]: 34.4%
viability, T/C [27]: 32.3%
viability, T/C [28]: 33.2%
viability, T/C [29]: 26.4%
viability, T/C [30]: 9.54%
viability, T/C [31]: 23.6%
viability, T/C [32]: 23.8%
viability, T/C [33]: 25.4%
viability, T/C [34]: 21.6%
viability, T/C [35]: 19.4%
viability, T/C [36]: 5.35%
viability, T/C [37]: 19.9%
viability, T/C [38]: 19.8%
viability, T/C [39]: 17.6%
viability, T/C [40]: 20.3%
viability, T/C [41]: 14.9%
viability, T/C [42]: 5.66%

O=C(c1cc(Cc2n[nH]c(=O)c3ccccc23)ccc1F)N1CCN(C(=O)C2CC2)CC1 + CN1CCN(c2cc(C(=O)Nc3cc4cc(-c5cnn(C)c5)ccc4cn3)ccn2)CC1
IC50 [1]: > 10000 nM
IC50 [2]: 633 nM
IC50 [3]: < 31.6 nM
IC50 [4]: < 31.6 nM
IC50 [5]: < 31.6 nM
IC50 [6]: < 31.6 nM
viability, T/C [7]: 88.1%
viability, T/C [8]: 95.5%
viability, T/C [9]: 85.7%
viability, T/C [10]: 94.9%
viability, T/C [11]: 96.2%
viability, T/C [12]: 74.6%
viability, T/C [13]: 51.3%
viability, T/C [14]: 50.5%
viability, T/C [15]: 50.9%
viability, T/C [16]: 50.6%
viability, T/C [17]: 45%
viability, T/C [18]: 35.2%
viability, T/C [19]: 2.72%
viability, T/C [20]: 3.01%
viability, T/C [21]: 2.89%
viability, T/C [22]: 3.34%
viability, T/C [23]: 3.07%
viability, T/C [24]: 2.03%
viability, T/C [25]: 0.78%
viability, T/C [26]: 1.06%
viability, T/C [27]: 0.79%
viability, T/C [28]: 0.54%
viability, T/C [29]: 0.67%
viability, T/C [30]: 0.77%
viability, T/C [31]: 1.02%
viability, T/C [32]: 0.99%
viability, T/C [33]: 1.13%
viability, T/C [34]: 1.07%
viability, T/C [35]: 2.34%
viability, T/C [36]: 1.07%
viability, T/C [37]: 0.83%
viability, T/C [38]: 0.87%
viability, T/C [39]: 0.89%
viability, T/C [40]: 1.19%
viability, T/C [41]: 1.06%
viability, T/C [42]: 0.83%

From PubChem BioAssay AID2060607 (Molecular Pharmacology Branch, DTP, NCI, 2025)
